In patent publication US20040029215A1, “Process for producing rfrp” (priority 2000, published 2004):
Ends that are not written are not given here.

System: cAMP production
Assay: activity of inhibiting the cAMP production (method of Example 1 of WO 00/29441)
Assay type: cell-based
Conditions: polypeptide obtained in Example 4, compared with the synthetic polypeptide of the same sequence
Procedure: The activity of inhibiting the cAMP production was determined for the polypeptide of the invention obtained in Example 4 (the polypeptide having the amino acid sequence of SEQ ID NO: 7) according to the method described in Example 1 of WO 00/29441.

polypeptide having the amino acid sequence of SEQ ID NO: 7: polypeptide of the invention consisting of 37 amino acid residues, excised from a recombinant RFRP-1/CS23 fusion protein by S-cyanation and ammonolysis (SLNFEELKDWGPKNVIKMSTPAVNKMPHSFANLPLRF; not fully specified (C-terminus))
activity of inhibiting the cAMP production: has the activity as much as the synthetic polypeptide
